Measured values: US9873694B2, “Imidazole quinoline-based immune system modulators” (Janus Biotherapeutics, Inc., priority 2011, dated 2018)

Experiments:
human TLR9 (hTLR9) = target: T1, human TLR9 (hTLR9) (Homo sapiens, UniProt Q9NR96); assay: TLR9 antagonist assay (HEK-Blue-hTLR9 cells, NF-kB/AP-1 driven SEAP reporter, ODN 2006 agonist); format: cell-based; conditions: 1 hour compound pre-incubation, then hTLR9 agonist (such as ODN 2006, 1 uM) overnight, SEAP read at 620 nm, 4 parameter Hill fit, read-out: hTLR9 antagonism IC50
T1 construct: host or cells: HEK293 (HEK-Blue-hTLR9)
T1 sequence (Q9NR96 26-1032): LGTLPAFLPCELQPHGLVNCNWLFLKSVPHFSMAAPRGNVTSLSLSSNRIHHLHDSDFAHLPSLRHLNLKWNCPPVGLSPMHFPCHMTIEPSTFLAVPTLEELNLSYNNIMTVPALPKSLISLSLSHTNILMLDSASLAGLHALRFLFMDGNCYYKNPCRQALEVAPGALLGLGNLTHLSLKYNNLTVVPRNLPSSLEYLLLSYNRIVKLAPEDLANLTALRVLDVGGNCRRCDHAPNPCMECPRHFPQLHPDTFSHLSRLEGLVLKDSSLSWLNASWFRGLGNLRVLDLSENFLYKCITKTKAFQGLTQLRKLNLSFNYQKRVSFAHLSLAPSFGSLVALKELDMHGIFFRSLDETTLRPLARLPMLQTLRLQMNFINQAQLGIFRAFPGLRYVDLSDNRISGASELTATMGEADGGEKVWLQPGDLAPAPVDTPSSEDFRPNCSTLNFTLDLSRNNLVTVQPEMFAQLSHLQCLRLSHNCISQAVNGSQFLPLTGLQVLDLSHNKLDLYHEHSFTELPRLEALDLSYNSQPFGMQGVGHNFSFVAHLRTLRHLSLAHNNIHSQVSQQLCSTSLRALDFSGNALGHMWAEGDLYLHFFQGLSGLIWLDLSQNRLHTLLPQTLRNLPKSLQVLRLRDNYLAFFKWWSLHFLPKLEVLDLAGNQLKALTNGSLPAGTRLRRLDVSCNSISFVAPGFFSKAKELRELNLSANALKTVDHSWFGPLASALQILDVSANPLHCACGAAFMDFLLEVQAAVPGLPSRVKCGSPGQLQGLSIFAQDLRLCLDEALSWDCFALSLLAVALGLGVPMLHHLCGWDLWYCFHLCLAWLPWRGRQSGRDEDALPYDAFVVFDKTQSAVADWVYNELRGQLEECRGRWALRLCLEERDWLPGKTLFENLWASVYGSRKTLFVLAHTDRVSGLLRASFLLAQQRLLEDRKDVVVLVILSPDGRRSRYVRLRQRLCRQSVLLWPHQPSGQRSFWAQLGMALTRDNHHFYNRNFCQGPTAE
Source text: HEK-Blue™-hTLR9 cells were obtained from InvivoGen Inc. and used to determine test compound antagonism of human TLR9 (hTLR9) driven responses. HEK-Blue™-hTLR9 cells are designed for studying the stimulation of human TLR9 by monitoring the activation of NF-kB. As described by the manufacturer, “HEK-Blue™-hTLR9 cells were obtained by co-transfection of the hTLR9 gene and an optimized secreted embryonic alkaline phosphatase (SEAP) reporter gene into HEK293 cells. The SEAP reporter gene is placed under the control of the IFN-b minimal promoter fused to five NF-kB and AP-1 binding sites. Stimulation with a TLR9 ligand activates NF-kB and AP-1 which induces the production of SEAP. Levels of SEAP can be easily determined with QUANTI-Blue™ a detection medium that turns purple/blue in the presence of alkaline phosphatase”.
A cell suspension of HEK-Blue™-hTLR9 cells at ˜450,000 cells per ml in test medium which contained 5% (v/v) heat inactivated FBS was prepared. 180 ul of cell suspension (˜80,000 cells) was added per well of a flat-bottom 96-well plate and place in an incubator at 37° C. for overnight.
Test compounds were serially diluted in test medium, generally starting at 10 uM, and diluting by 3 fold in a 96 well master plate. 20 ul of diluted test compound was transferred using a 12 channel multi-channel pipet to the cell plate and incubated at 37° C. for 1 hour. Then 20 ul of an hTLR9 agonist (such as ODN 2006, 1 uM) was added to each well and the plate incubated at 37° C. overnight.
Invivogen's QUANTI-Blue™ was prepared following the manufacturer's instructions. […] of resuspended QUANTI-Blue™ was added per well of a flat bottom 96-well plate. 20 ul per well of induced HEK-Blue™-hTLR9 cells supernatant was then added to the plate and the plate was incubated at 37° C. for 1-3 h. SEAP levels were determined using a spectrophotometer at 620 nm.
The concentration dependent inhibition of hTLR9 dependent SEAP production was expressed as the concentration of compound which produced half the maximal level of SEAP induced by the hTLR agonist alone. Percent activity was calculated for each observation using the formula: % activity=((observed O.D.−background O.D.)/(agonist only O.D.−background O.D.))*100. The 50% inhibitory concentration (IC50) (Table 3) was calculated by using a 4 parameter Hill plot sigmoidal curve fit where the inflection point of the sigmoidal curve is defined as the point of 50% activity.

TLR9 = target: T2, TLR9 (Mus musculus, UniProt Q9EQU3); assay: In vivo TLR antagonism: serum IL-12 after CpG ODN 1668 TLR9 agonist injection, single intraperitoneal dose to male C57Bl/6 mice; set-up: species or system C57Bl/6J mouse; conditions: male C57Bl/6J mice; test article i.p. at T=0 hr; CpG ODN 1668 i.p. at T=1 hr; serum IL-12 ELISA at T=4 hr; doses 400 ug to 10 ug
T2 construct: Male C57Bl/6J mice, at ˜8 weeks of age from Jackson Laboratories were used; tissue Jackson Laboratories; host or cells: whole animal, male C57Bl/6J mouse
T2 sequence (Q9EQU3 26-1032): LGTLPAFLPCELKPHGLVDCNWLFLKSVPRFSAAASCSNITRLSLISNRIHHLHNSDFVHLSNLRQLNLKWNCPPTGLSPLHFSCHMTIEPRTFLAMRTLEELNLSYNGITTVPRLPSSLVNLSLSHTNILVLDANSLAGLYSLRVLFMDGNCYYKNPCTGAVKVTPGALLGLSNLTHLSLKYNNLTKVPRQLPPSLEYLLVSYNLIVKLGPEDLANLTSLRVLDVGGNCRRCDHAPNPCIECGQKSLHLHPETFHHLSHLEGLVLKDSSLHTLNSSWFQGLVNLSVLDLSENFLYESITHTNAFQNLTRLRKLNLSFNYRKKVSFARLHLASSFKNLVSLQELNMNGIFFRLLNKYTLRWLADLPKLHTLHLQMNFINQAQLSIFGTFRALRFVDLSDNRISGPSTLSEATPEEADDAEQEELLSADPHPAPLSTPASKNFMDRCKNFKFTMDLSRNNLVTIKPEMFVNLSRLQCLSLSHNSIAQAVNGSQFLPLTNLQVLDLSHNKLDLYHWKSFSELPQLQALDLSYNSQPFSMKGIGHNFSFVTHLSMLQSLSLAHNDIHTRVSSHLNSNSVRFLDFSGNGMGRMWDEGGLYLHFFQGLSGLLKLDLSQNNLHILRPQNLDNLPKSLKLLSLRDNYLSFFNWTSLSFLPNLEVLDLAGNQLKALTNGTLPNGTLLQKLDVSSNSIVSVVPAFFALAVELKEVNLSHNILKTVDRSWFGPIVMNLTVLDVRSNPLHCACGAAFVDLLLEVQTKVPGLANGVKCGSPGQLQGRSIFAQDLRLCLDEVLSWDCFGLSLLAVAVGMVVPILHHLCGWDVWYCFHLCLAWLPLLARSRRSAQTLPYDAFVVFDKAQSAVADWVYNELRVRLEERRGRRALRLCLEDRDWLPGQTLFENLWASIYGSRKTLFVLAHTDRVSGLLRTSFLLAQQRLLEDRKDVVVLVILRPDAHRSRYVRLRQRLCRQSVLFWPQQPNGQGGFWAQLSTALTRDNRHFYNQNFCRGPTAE
Method: The Effects of test articles on Toll-Like Receptor (TLR) Knockdown Following a Single Intraperitoneal Dose to Male C57Bl/6 Mice.
Toll-Like Receptor (TLR) knockdown effect of test articles was evaluated in a C57Bl/6J mouse. Primary end points included a terminal blood collection for analysis of cytokine production in response to CpG-DNA TLR9 agonist injection. Male C57Bl/6J mice, at ˜8 weeks of age from Jackson Laboratories were used. Test groups were 3 mice per treatment group and the groups were administered test article in a series of descending doses within the range of 400 ug to 10 ug. Test article treatment was dosed at T=0 hr by intraperitoneal injection. Agonist (CpG ODN 1668) treatment was dosed one hour later, T=1 hr by intraperitoneal injection. Necropsy was performed 3 hours post agonist treatment, T=4 hr. Blood samples were collected into serum separator tubes, allowed to clot at room temperature for at least 20 minutes, centrifuged at ambient temperature at 3000 g for 10 minutes, and the serum was extracted. ELISA was performed to determine murine IL-12 levels following manufacture's protocol (BioLegend Inc.). Serum IL-12 levels were calculated and plotted versus administered dose of antagonist and inhibitory dose at 50% (ID50) was determined.

Row | SMILES | IC50 (human TLR9 (hTLR9)) [nM] | In vivo TLR antagonism ID50 (inhibitory dose at 50% of serum IL-12) (TLR9) [µg]
1 | CCOCc1nc2c(N3CCN(C)CC3)nc3ccccc3c2n1CCOCCO [Compound 64] | 6690 | 
2 | CCOCc1nc2c(N(C)CCN(C)C)nc3ccccc3c2n1CCN1CCN(C)CC1 [Compound 65] | 56 | 67
3 | CCOCc1nc2c(N(C)CCN(C)C)nc3ccccc3c2n1CCN1CCOCC1 [Compound 60] | 3410 | 
4 | CN(C)CCN(C)c1nc2ccccc2c2c1nc(O)n2CCN(C)C [Compound 68] | 136 | 280
5 | CN(C)CCN(C)c1nc2ccccc2c2c1ncn2CCN(C)C [Compound 67] | 143 | 1262
6 | CN(C)CCN(C)c1nc2ccccc2c2c1nc(O)n2CCc1c[nH]cn1 [Compound 69] | 1650 | 
7 | CCOCc1nc2c(N(C)CCN(C)C)nc3ccccc3c2n1CCN(C)C [Compound 61] | 389 | 
8 | CCOCc1nc2c(N3CCN(C)CC3)nc3ccccc3c2n1CCN(C)C [Compound 62] | 713 | 
9 | CCOCc1nc2c(N3CCN(C)CC3)nc3ccccc3c2n1CCN1CCN(C)CC1 [Compound 66] | 323 | 
10 | CCOCc1nc2c(N(C)CCN(C)C)nc3ccccc3c2n1CCOCCO [Compound 63] | 3350 | 
